Values joined by “and” are separate entries in the source; they are usually repeats but may differ in a detail not shown here. Equal values may be shown once.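 Each compound was tested at five concentrations against cells in 96-well plates for 48 hours. GI50 = concentration required for 50% inhibition of growth.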 Active and inactive are the calls of the source. No stated cut-off is given here; in the data, active = GI50 up to about 1.1 µM and inactive = higher.
Assays:
Assay in all cases: NCI tumour cell line growth inhibition, 48 h
[1] = system: ACHN
[2] = system: RXF 393
[3] = system: HL-60
[4] = system: SF-539
[5] = system: HOP-62
[6] = system: CAKI-1
[7] = system: 786-0
[8] = system: UACC-62
[9] = system: SW-620
[10] = system: COLO 205
[11] = system: Malme-3M
[12] = system: DLD-1
[13] = system: HT-29
[14] = system: MDA-MB-435
[15] = system: MOLT-4
[16] = system: PC-3
[17] = system: SK-MEL-5
[18] = system: A498
[19] = system: BT-549
[20] = system: DMS-273

Structure (SMILES)	GI50 [1]	GI50 [2]	GI50 [3]	GI50 [4]	GI50 [5]	GI50 [6]	GI50 [7]	GI50 [8]	GI50 [9]	GI50 [10]	GI50 [11]	GI50 [12]	GI50 [13]	GI50 [14]	GI50 [15]	GI50 [16]	GI50 [17]	GI50 [18]	GI50 [19]	GI50 [20]
COc1ccc(-c2oc(/C=N/NC(N)=S)c([N+](=O)[O-])c2-c2ccc(OC)c(OC)c2)cc1OC	18.5 µM (inactive)	13.2 µM (inactive)	21.7 µM (inactive)	25.4 µM (inactive)	28 µM (inactive)	32.1 µM (inactive)	27.1 µM (inactive)	20.1 µM (inactive)	33.1 µM (inactive)	> 100 µM (inactive)	17.3 µM (inactive)	24.3 µM (inactive)	23.1 µM (inactive)	–	–	–	–	–	–	–
Cc1nc2sc3ccccc3n2c(=O)c1/N=N/c1ccc(Br)cc1	> 100 µM (inactive)	> 100 µM (inactive)	81.8 µM (inactive)	> 100 µM (inactive)	> 100 µM (inactive)	> 100 µM (inactive)	> 100 µM (inactive)	> 100 µM (inactive)	> 100 µM (inactive)	> 100 µM (inactive)	> 100 µM (inactive)	–	> 100 µM (inactive)	> 100 µM (inactive)	55.8 µM (inactive)	51.5 µM (inactive)	> 100 µM (inactive)	43.3 µM (inactive)	> 100 µM (inactive)	–
CCOC(=O)c1ccc(N[C@@H]2c3cc4c(cc3C(C3=CC(=O)C(=O)C(OC)=C3)[C@H]3C(=O)OCC32)OCO4)cc1 (stereo partly drawn)	0.9 µM (active)	2.84 µM (inactive)	0.802 µM (active)	1.29 µM (inactive)	0.512 µM (active)	0.634 µM (active)	1.6 µM (inactive)	1.69 µM (inactive)	2.34 µM (inactive)	3.21 µM (inactive)	2.53 µM (inactive)	–	4.49 µM (inactive)	–	0.215 µM (active)	–	2.72 µM (inactive)	1.77 µM (inactive)	–	1.12 µM (inactive)
N#CC(C#N)[C@@H]1CCC=C(Sc2ccccc2)[C@H]1Sc1ccccc1	2.34 µM (inactive)	1.83 µM (inactive)	2.01 µM (inactive)	2 µM (inactive)	3.2 µM (inactive)	2.65 µM (inactive)	2.17 µM (inactive)	3.56 µM (inactive)	2.42 µM (inactive)	2.2 µM (inactive)	2.42 µM (inactive)	–	3.87 µM (inactive)	1.26 µM (inactive)	2.38 µM (inactive)	3.86 µM (inactive)	3.41 µM (inactive)	13.5 µM (inactive)	3.23 µM (inactive)	–
O=C(C(=O)c1cc(-c2ccccc2)nc2ccc3ccccc3c12)c1ccccc1	> 100 µM (inactive)	39 µM (inactive)	20.7 µM (inactive)	32.1 µM (inactive)	31.6 µM (inactive)	58.3 µM (inactive)	33.5 µM (inactive)	38.8 µM (inactive)	59 µM (inactive)	88.1 µM (inactive)	27.8 µM (inactive)	–	> 100 µM (inactive)	33.2 µM (inactive)	22.1 µM (inactive)	43.2 µM (inactive)	60.1 µM (inactive)	90.4 µM (inactive)	65.8 µM (inactive)	–
COC(=O)C#Cc1ccc([N+](=O)[O-])cc1	1.41 µM (inactive)	1.9 µM (inactive)	1.77 µM (inactive)	1.69 µM (inactive)	2.65 µM (inactive)	1.38 µM (inactive)	2.32 µM (inactive)	2.69 µM (inactive)	1.19 µM (inactive)	1.83 µM (inactive)	2.27 µM (inactive)	–	1.6 µM (inactive)	2.18 µM (inactive)	0.659 µM (active)	3.73 µM (inactive)	2.4 µM (inactive)	9.91 µM (inactive)	1.49 µM (inactive)	–
C(=N\c1ccc(-c2nc3ccccc3s2)cc1)/c1ccc[nH]1	20.7 µM (inactive)	16 µM (inactive)	16.5 µM (inactive)	17.6 µM (inactive)	12.5 µM (inactive)	22.8 µM (inactive)	21.9 µM (inactive)	15.6 µM (inactive)	22.4 µM (inactive)	16.3 µM (inactive)	18.2 µM (inactive)	–	19.8 µM (inactive)	19.2 µM (inactive)	11.7 µM (inactive)	14.9 µM (inactive)	16.7 µM (inactive)	15.7 µM (inactive)	17.3 µM (inactive)	–
COc1cc(/C=C/C(=O)CC(=O)/C=C/c2cc(OC)c(O)c(OC)c2)cc(OC)c1O	9.31 µM (inactive)	3.33 µM (inactive)	16.3 µM (inactive)	8.77 µM (inactive)	11.7 µM (inactive)	9.04 µM (inactive)	5.82 µM (inactive)	4.22 µM (inactive)	> 25 µM (inactive)	10.1 µM (inactive)	9.16 µM (inactive)	–	7.76 µM (inactive)	6.17 µM (inactive)	6.84 µM (inactive)	10.4 µM (inactive)	8.63 µM (inactive)	4.93 µM (inactive)	8.95 µM (inactive)	–
CCOC(=O)C12C(=O)CCN1CCc1ccccc1C2C (stereo not drawn)	> 100 µM (inactive)	> 100 µM (inactive)	> 100 µM (inactive)	> 100 µM (inactive)	> 100 µM (inactive)	> 100 µM (inactive)	> 100 µM (inactive)	> 100 µM (inactive)	> 100 µM (inactive)	> 100 µM (inactive)	> 100 µM (inactive)	–	> 100 µM (inactive)	> 100 µM (inactive)	> 100 µM (inactive)	> 100 µM (inactive)	> 100 µM (inactive)	> 100 µM (inactive)	> 100 µM (inactive)	–
CC(=O)O[C@@H]1C[C@]2(C(=O)c3ccccc3)C(=O)C(=O)S[C@]12c1ccccc1	62.2 µM (inactive)	25.9 µM (inactive)	0.225 µM (active)	24.2 µM (inactive)	61 µM (inactive)	42.9 µM (inactive)	35.5 µM (inactive)	39.7 µM (inactive)	31.6 µM (inactive)	38.3 µM (inactive)	> 100 µM (inactive)	–	67.9 µM (inactive)	29.2 µM (inactive)	28.4 µM (inactive)	36.5 µM (inactive)	32.4 µM (inactive)	40.2 µM (inactive)	44.1 µM (inactive)	–
CCOC(=O)C(=O)Nc1c(C)cccc1C(C)(C)C	> 100 µM (inactive)	> 100 µM (inactive)	–	> 100 µM (inactive)	> 100 µM (inactive)	> 100 µM (inactive)	> 100 µM (inactive)	> 100 µM (inactive)	> 100 µM (inactive)	> 100 µM (inactive)	> 100 µM (inactive)	–	> 100 µM (inactive)	–	> 100 µM (inactive)	–	> 100 µM (inactive)	–	–	> 100 µM (inactive)
COc1nc(N)c(NC2OC(CO)C(O)C2O)c(=O)[nH]1 (stereo not drawn)	> 100 µM (inactive)	> 100 µM (inactive)	> 100 µM (inactive)	> 100 µM (inactive)	> 100 µM (inactive)	> 100 µM (inactive)	> 100 µM (inactive)	> 100 µM (inactive)	> 100 µM (inactive)	> 100 µM (inactive)	> 100 µM (inactive) and 75.5 µM (inactive)	–	> 100 µM (inactive)	> 100 µM (inactive)	> 100 µM (inactive)	> 100 µM (inactive)	> 100 µM (inactive)	> 100 µM (inactive)	> 100 µM (inactive)	–
O=C1Oc2ccccc2C(=O)/C1=C/N1C(=O)N/C(=C\c2ccccc2O)C1=O	47.6 µM (inactive)	37.5 µM (inactive)	60.3 µM (inactive)	59.8 µM (inactive)	71.3 µM (inactive)	79.4 µM (inactive)	68.7 µM (inactive)	36.9 µM (inactive)	> 90.8 µM (inactive)	62.5 µM (inactive)	> 100 µM (inactive)	–	54.7 µM (inactive)	> 79.3 µM (inactive)	41.2 µM (inactive)	43.6 µM (inactive)	44.6 µM (inactive)	42.6 µM (inactive)	45.4 µM (inactive)	–
CC12Cc3cc4c(cc3C1(c1ccc([N+](=O)[O-])cc1)OCCO2)OCO4 (stereo not drawn)	28 µM (inactive)	16.4 µM (inactive)	> 100 µM (inactive)	28 µM (inactive)	18.1 µM (inactive)	> 100 µM (inactive)	47.9 µM (inactive)	36.8 µM (inactive)	> 100 µM (inactive)	> 100 µM (inactive)	> 100 µM (inactive)	–	> 100 µM (inactive)	> 100 µM (inactive)	> 100 µM (inactive)	97.7 µM (inactive)	> 100 µM (inactive)	> 100 µM (inactive)	25.5 µM (inactive)	–
Cc1ncc(-c2nnnn2-c2ccccc2)c(C(=O)O)n1	> 100 µM (inactive)	> 100 µM (inactive)	> 100 µM (inactive)	> 100 µM (inactive)	> 100 µM (inactive)	> 100 µM (inactive)	> 100 µM (inactive)	> 100 µM (inactive)	> 100 µM (inactive)	> 100 µM (inactive)	> 100 µM (inactive)	–	> 100 µM (inactive)	> 100 µM (inactive)	> 100 µM (inactive)	> 100 µM (inactive)	> 100 µM (inactive)	> 100 µM (inactive)	> 100 µM (inactive)	–
O=C(NC1CCCCC1)c1c(O)[nH]c(=S)[nH]c1=O	83 µM (inactive)	–	–	> 100 µM (inactive)	> 100 µM (inactive)	> 100 µM (inactive)	> 100 µM (inactive)	> 100 µM (inactive)	> 100 µM (inactive)	> 100 µM (inactive)	> 100 µM (inactive)	> 100 µM (inactive)	> 100 µM (inactive)	–	> 100 µM (inactive)	–	> 100 µM (inactive)	> 100 µM (inactive)	–	–
